Laboratory results: patent publication US11291840B2, “Neuronal stimulation model, device and methods using alternate current” (priority 2017, dated 2022)

Test system: dissociated rat cortical neurons
Assay: Axon 3D growth after local delivery of soluble factors in silk scaffold/collagen gel 3D brain tissue model (β III-tubulin staining, 3D neurite tracing)
Format: cell-based
Conditions: for Axon length: 3D culture, mean±SEM; for axon abundance in center core of 3D cultures (β III-tubulin 2D projections): ECM components compared to neurotrophic factors, ranking among neurotrophic factors; for axons longer compared to BDNF / axons longer compared to the control: axon lengths at DIV 7, 4 days exposure; for axons longer compared to BDNF: vs BDNF; for axons longer compared to the control: vs control culture
From the text: In one aspect of the present disclosure, control of axon growth and alignment in a CNS environment is critical for nervous system development and regenerative growth. The present disclosure explores the effects of exogenous stimulus of electrical signals and soluble factors on axon 3D growth, using a silk protein material-based 3D brain tissue model. A pair of gold wires were threaded into the 3D tissue model, positioned at the interface of the scaffold region and the center gel region, spanning the axon growth area. This setup delivered applied electrical field directly to growing axons, and the effects were compared to local delivery of soluble factors including extracellular (ECM) components and neurotrophic factors. In one embodiment, dissociated rat cortical neurons were exposed to an alternating field of 80 mV/mm at 0.5 Hz to 2 kHz or soluble factors for up to 4 days, starting on day 3 in vitro (DIV 3), and evaluated by of β III-tubulin immunostaining, confocal imaging and 3D neurite tracing. […] In one embodiment, though axon lengths under 2 Hz stimulation and LN or FN exposure were statistically similar, significant AC-induced axon orientation was found under all frequencies tested. In one embodiment, the effects include perpendicular orientation of axons trespassing an electrode and aligned axon tracts in parallel to the field direction. In one embodiment, the electrode in AC field acts as an alternating cathode that attracts the growing tip of the axon, and AC field between pair electrodes orient axon tract formation in parallel to the field direction. Provided in this disclosure is the use of alternating electric field stimulation to direct axon 3D length growth and orientation. In one aspect, the present disclosure provides stimulation parameters, in conjunction of delivery of growth promoting soluble factors in a brain mimetic 3D environment. In one aspect, the present disclosure teaches the fundamental effects of electrical fields on nervous system development and for testing neuromodulation approaches to promote neural regeneration.
The 3D brain tissue is composed of silk protein material-based scaffold and infused extracellular matrix (ECM) gel, such as collagen type I gel used in this study, as described previously (Tang-Schomer, 2014, 2015). The center region of the donut-shaped scaffold is filled with ECM gel only, for axon outgrowth; whereas the cell bodies are confined to the scaffold region. […]
Axon growth in the 3D brain tissue model was compared after local delivery of soluble factors, including extracellular matrix components such as laminin (LN) and fibronectin (FN) and brain-derived neurotrophic factor (BDNF), glial-derived neurotrophic factor (GDNF), neurotrophin-3 (NT3), and nerve growth factor (NGF) (FIGS. 13A-M). FIGS. 13A-J show representative 2D projections of β III-tubulin stained axons in the center core of 3D cultures.
The rat brain tissue dissociation protocol was approved by Tufts University Institutional Animal Care and Use Committee and complies with the NIH Guide for the Care and Use of Laboratory Animals (IACUC #B2011-45). Cortices from embryonic day 18 (E18) Sprague Dawley rats (Charles River, Wilmington, Mass., USA) were isolated, dissociated with trypsin (0.3%, Sigma) and DNase (0.2%, Roche Applied Science, Indianapolis, Ind., USA) followed with trypsin inhibition with soybean proteins (1 mg/mL, Sigma), centrifuged, and plated at 200,000-625,000 cells/cm^2 in NeuroBasal media (Invitrogen, Carlsbad, Calif., USA) supplemented with B-27 neural supplement, penicillin/streptomycin (100 U/mL and 100 μg/mL), and GlutaMax (2 mM) (Invitrogen). Cultures were maintained in 37° C., 100% humidity and 5% CO2 in an incubator (Forma Scientific, Marietta, Ohio, USA) for up to 16 days in vitro (DIV 1-16). Cultures of DIV 14-16 were used for stimulation.
Silk solution and porous scaffolds were prepared from Bombyx mori cocoons as described previously (Tang-Schomer et al., 2014). […]

[1] = 48 hr exposure after local delivery of soluble factor
[2] = 4 ds exposure of soluble factor (DIV 7), in µm

Molecule	Axon length [1]	Axon length [2]	axon abundance in center core of 3D cultures (β III-tubulin 2D projections)	axons longer compared to BDNF	axons longer compared to the control	axon appearance after 48 hr exposure (48 hr exposure)	axon appearance after 4 days (4 days after local delivery)
fibronectin [FN]	1220.7±57.5 μm	1411.8±45.1	more abundant axons	~25%	~41%		
laminin [LN]	1237.7±51.3 μm	1332.5±71.0	more abundant axons	~18%	~33%		
nerve growth factor [NGF]	706.5±33.4 μm	1045.6±61.9					
glial-derived neurotrophic factor (protein, UniProt P39905 78-211, looked up, neurotrophic factor delivered locally as soluble factor) Glial cell line-derived …: SPDKQMAVLPRRERNRQAAAANPENSRGKGRRGQRGKNRGCVLTAIHLNVTDLGLGYETKEELIFRYCSGSCDAAETTYDKILKNLSRNRRLVSDKVGQACCRPIAFDDDLSFLDDNLVYHILRKHSAKRCGCI	802.5±38.0 μm	1068.3±43.9					
neurotrophin-3 (protein, UniProt P20783 139-257, looked up, neurotrophic factor delivered locally as soluble factor) Neurotrophin-3: YAEHKSHRGEYSVCDSESLWVTDKSSAIDIRGHQVTVLGEIKTGNSPVKQYFYETRCKEARPVKNGCRGIDDKHWNSQCKTSQTYVRALTSENNKLVGWRWIRIDTSCVCALSRKIGRT	728.2±42.5 μm	784.3±71.6				robust growth	signs of axon degeneration
brain-derived neurotrophic factor (protein, UniProt P23560 19-247, looked up, neurotrophic factor delivered locally as soluble factor) Neurotrophic factor BDNF …: APMKEANIRGQGGLAYPGVRTHGTLESVNGPKAGSRGLTSLADTFEHVIEELLDEDQKVRPNEENNKDADLYTSRVMLSSQVPLEPPLLFLLEEYKNYLDAANMSMRVRRHSDPARRGELSVCDSISEWVTAADKKTAVDMSGGTVTVLEKVPVSKGQLKQYFYETKCNPMGYTKEGCRGIDKRHWNSQCRTTQSYVRALTMDSKKRIGWRFIRIDTSCVCTLTIKRGR	946.8±35.2 μm	1131.1±52.0	most abundant axons		~13%		
